{"source": "paper PMC6681697", "about": "“One-Step ^18F-Labeling and Preclinical Evaluation of Prostate-Specific Membrane Antigen Trifluoroborate Probes for Cancer Imaging” (Journal of Nuclear Medicine, 2019)", "key": {"[1]": {"assay": "Distribution coefficient (LogD7.4), shake flask method", "type": "physicochemical", "details": "n-octanol / phosphate buffer 0.1 M pH 7.4; n = 3", "procedure": "LogD7.4 values were measured using the shake flask method. Briefly, an aliquot of ^18F-labeled tracer was added to a vial containing 2.5 mL of n-octanol and 2.5 mL of phosphate buffer (0.1 M, pH 7.4). The mixture was vortexed for 2 min and then centrifuged at 3,000g for 10 min. A sample of the n-octanol (0.1 mL) and buffer (0.1 mL) layers was counted using a γ-counter. Values of LogD7.4 were calculated using the following equation: LogD7.4 = log10 [(counts in n-octanol phase)/(counts in buffer phase)]."}, "LNCaP xenografts": {"test_system": "LNCaP xenografts", "assay": "Ex vivo biodistribution and blocking studies in mice bearing LNCaP xenografts", "details": "for tumor uptake: LNCaP tumor", "procedure": "Imaging and biodistribution experiments were performed using NODSCID IL2RγKO male mice. All experiments were conducted according to the guidelines established by the Canadian Council on Animal Care and approved by the Animal Ethics Committee of the University of British Columbia. Mice were anesthetized by inhalation with 2% isoflurane in oxygen and implanted subcutaneously with 1 × 10^7 LNCaP cells behind the left shoulder. The mice were imaged or used in biodistribution studies once the tumor reached 5–8 mm in diameter (5–6 wk).\nFor biodistribution and blocking studies, the mice were injected with 1–3 MBq of radiotracer. At 60 min, the mice were anesthetized with 2% isoflurane inhalation and euthanized by CO2 inhalation. Blood was withdrawn by cardiac puncture, and the organs and tissues of interest were collected, weighed, and counted using an automatic γ-counter (PerkinElmer). Uptake values were expressed as the percentage of the injected dose per gram of tissue (%ID/g).\nA standard 1-way ANOVA was performed to determine whether statistically significant differences in tumor uptake occurred between radiotracers. Each radiotracer was compared with ^18F-DCFPyL using the Dunnett test (a many-to-one t test comparison). This analysis was also performed for kidney and blood activity and for tumor-to-blood and tumor-to-muscle ratios. Reported P values were adjusted for multiple comparisons. The analysis was performed using Prism 8 (GraphPad). […]\nStatistical analyses were performed using GradPad prism 7. Multiple t tests were performed to compare biodistribution in unblocked and blocked mice, multiple comparisons were corrected using the Holm-Sidak method. The difference was considered statistically significant when p value was < 0.05.\nSupplemental Table 1 – Complete biodistribution study for compounds [18F]1–3 […]\nTissue 1h 1h blocked 1h 1h blocked 1h 1h blocked\n(%ID/g) n = 8 n = 4 n = 6 n = 4 n = 8 n = 5 […]\n(1 picture or pasted object on this page, not shown here)"}, "PSMA": {"target": "T1, PSMA (Homo sapiens, UniProt Q04609)", "T1 construct": "because it expresses PSMA endogenously and is commonly used to evaluate PSMA-targeting radiotracers; endogenous in cells; host or cells: LNCaP cells", "T1 sequence (Q04609 whole entry)": "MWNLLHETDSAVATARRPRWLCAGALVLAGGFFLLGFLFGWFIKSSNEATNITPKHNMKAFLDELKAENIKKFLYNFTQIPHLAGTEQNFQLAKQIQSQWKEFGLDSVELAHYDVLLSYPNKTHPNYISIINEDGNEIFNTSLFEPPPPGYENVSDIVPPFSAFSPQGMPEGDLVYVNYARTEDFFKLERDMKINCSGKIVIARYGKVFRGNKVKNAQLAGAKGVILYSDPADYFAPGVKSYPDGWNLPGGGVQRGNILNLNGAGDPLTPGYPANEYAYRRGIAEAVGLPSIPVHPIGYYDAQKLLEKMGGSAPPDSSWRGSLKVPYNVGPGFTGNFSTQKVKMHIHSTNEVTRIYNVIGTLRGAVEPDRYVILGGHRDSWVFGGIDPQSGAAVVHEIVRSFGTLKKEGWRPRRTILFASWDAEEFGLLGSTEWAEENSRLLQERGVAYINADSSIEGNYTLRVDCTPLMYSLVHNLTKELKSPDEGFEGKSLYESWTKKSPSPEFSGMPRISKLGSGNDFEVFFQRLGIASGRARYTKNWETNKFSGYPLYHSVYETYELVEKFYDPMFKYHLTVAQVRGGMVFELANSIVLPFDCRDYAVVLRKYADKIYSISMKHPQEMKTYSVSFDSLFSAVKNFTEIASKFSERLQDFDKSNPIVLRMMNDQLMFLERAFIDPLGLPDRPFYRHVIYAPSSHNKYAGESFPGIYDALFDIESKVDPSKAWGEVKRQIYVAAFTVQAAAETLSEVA", "assay": "In vitro competition binding assay on LNCaP cells with ^18F-DCFPyL as radioligand", "procedure": "LNCaP cells were plated onto a 24-well poly-D-lysine coated plate for 48 h (400,000/well). […] Nonspecific binding was determined in the presence of 10 μM unlabeled DCFPyL. The assay mixtures were incubated for 1 h at 37°C with gentle agitation followed by 2 washes with cold HEPES buffered saline. A trypsin solution (0.25%, 400 μL) was then added to each well to harvest the cells. Radioactivity was measured by γ-counting, and Ki values were calculated using the “1 site—fit Ki” built-in model in Prism 7 (GraphPad)."}, "[2]": {"details": "1 h after injection, 1-way ANOVA, Dunnett test"}, "[3]": {"details": "1 h blocked (coinjection of DCFPyL 0.5 mg)"}}, "data": [{"smiles": "C[N+](C)(Cc1cn(Cc2ccc(C(=O)NCCCC[C@H](NC(=O)N[C@@H](CCC(=O)O)C(=O)O)C(=O)O)cn2)nn1)C[B-](F)(F)F", "note": "[^18F-3]", "values": [{"measurement": "logD at 2 min", "setting": "[1]", "result": "-4.01 ± 0.14"}, {"measurement": "T/B (tumor-to-blood ratio)", "setting": "LNCaP xenografts; 1 h after injection, unblocked", "result": "9.68 ± 4.53"}, {"measurement": "T/K (tumor-to-kidney ratio)", "setting": "LNCaP xenografts; 1 h after injection, unblocked", "result": "0.11 ± 0.08"}, {"measurement": "T/M (tumor-to-muscle ratio)", "setting": "LNCaP xenografts; 1 h after injection, unblocked", "result": "29.00 ± 12.40"}, {"measurement": "adrenal uptake", "setting": "LNCaP xenografts; 1 h after injection, unblocked", "result": "1.35 ± 0.52", "unit": "%ID/g"}, {"measurement": "blood uptake", "setting": "LNCaP xenografts; 1 h after injection, unblocked", "result": "0.50 ± 0.16", "unit": "%ID/g"}, {"measurement": "bone uptake", "setting": "LNCaP xenografts; 1 h after injection, unblocked", "result": "0.20 ± 0.06", "unit": "%ID/g"}, {"measurement": "brain uptake", "setting": "LNCaP xenografts; 1 h after injection, unblocked", "result": "0.03 ± 0.01", "unit": "%ID/g"}, {"measurement": "fat uptake", "setting": "LNCaP xenografts; 1 h after injection, unblocked", "result": "0.35 ± 0.15", "unit": "%ID/g"}, {"measurement": "heart uptake", "setting": "LNCaP xenografts; 1 h after injection, unblocked", "result": "0.19 ± 0.07", "unit": "%ID/g"}, {"measurement": "intestine uptake", "setting": "LNCaP xenografts; 1 h after injection, unblocked", "result": "0.28 ± 0.07", "unit": "%ID/g"}, {"measurement": "kidney uptake", "setting": "LNCaP xenografts; 1 h after injection, unblocked", "result": "51.80 ± 24.10", "unit": "%ID/g"}, {"measurement": "liver uptake", "setting": "LNCaP xenografts; 1 h after injection, unblocked", "result": "1.17 ± 0.28", "unit": "%ID/g"}, {"measurement": "lung uptake", "setting": "LNCaP xenografts; 1 h after injection, unblocked", "result": "0.66 ± 0.19", "unit": "%ID/g"}, {"measurement": "muscle uptake", "setting": "LNCaP xenografts; 1 h after injection, unblocked", "result": "0.17 ± 0.07", "unit": "%ID/g"}, {"measurement": "pancreas uptake", "setting": "LNCaP xenografts; 1 h after injection, unblocked", "result": "0.27 ± 0.13", "unit": "%ID/g"}, {"measurement": "spleen uptake", "setting": "LNCaP xenografts; 1 h after injection, unblocked", "result": "0.84 ± 0.52", "unit": "%ID/g"}, {"measurement": "stomach uptake", "setting": "LNCaP xenografts; 1 h after injection, unblocked", "result": "0.08 ± 0.04", "unit": "%ID/g"}, {"measurement": "testes uptake", "setting": "LNCaP xenografts; 1 h after injection, unblocked", "result": "0.30 ± 0.09", "unit": "%ID/g"}, {"measurement": "kidney accumulation compared with ^18F-DCFPyL", "setting": "LNCaP xenografts; [2]", "result": "lower kidney accumulation"}, {"measurement": "tumor uptake compared with ^18F-DCFPyL", "setting": "LNCaP xenografts; [2]", "result": "lower tumor uptake than ^18F-DCFPyL"}, {"measurement": "T/B (tumor-to-blood ratio)", "setting": "LNCaP xenografts; [3]", "result": "1.17 ± 0.70"}, {"measurement": "T/K (tumor-to-kidney ratio)", "setting": "LNCaP xenografts; [3]", "result": "0.16 ± 0.05"}, {"measurement": "T/M (tumor-to-muscle ratio)", "setting": "LNCaP xenografts; [3]", "result": "3.54 ± 1.43"}, {"measurement": "adrenal uptake", "setting": "LNCaP xenografts; [3]", "result": "0.24 ± 0.07", "unit": "%ID/g"}, {"measurement": "blood uptake", "setting": "LNCaP xenografts; [3]", "result": "0.30 ± 0.10", "unit": "%ID/g"}, {"measurement": "bone uptake", "setting": "LNCaP xenografts; [3]", "result": "0.16 ± 0.06", "unit": "%ID/g"}, {"measurement": "brain uptake", "setting": "LNCaP xenografts; [3]", "result": "0.02 ± 0.00", "unit": "%ID/g"}, {"measurement": "fat uptake", "setting": "LNCaP xenografts; [3]", "result": "0.16 ± 0.10", "unit": "%ID/g"}, {"measurement": "heart uptake", "setting": "LNCaP xenografts; [3]", "result": "0.12 ± 0.06", "unit": "%ID/g"}, {"measurement": "intestine uptake", "setting": "LNCaP xenografts; [3]", "result": "0.23 ± 0.06", "unit": "%ID/g"}, {"measurement": "kidney uptake", "setting": "LNCaP xenografts; [3]", "result": "2.12 ± 0.73", "unit": "%ID/g"}, {"measurement": "liver uptake", "setting": "LNCaP xenografts; [3]", "result": "1.25 ± 0.17", "unit": "%ID/g"}, {"measurement": "lung uptake", "setting": "LNCaP xenografts; [3]", "result": "0.30 ± 0.11", "unit": "%ID/g"}, {"measurement": "muscle uptake", "setting": "LNCaP xenografts; [3]", "result": "0.09 ± 0.03", "unit": "%ID/g"}, {"measurement": "pancreas uptake", "setting": "LNCaP xenografts; [3]", "result": "0.08 ± 0.03", "unit": "%ID/g"}, {"measurement": "spleen uptake", "setting": "LNCaP xenografts; [3]", "result": "0.09 ± 0.05", "unit": "%ID/g"}, {"measurement": "stomach uptake", "setting": "LNCaP xenografts; [3]", "result": "0.06 ± 0.02", "unit": "%ID/g"}, {"measurement": "testes uptake", "setting": "LNCaP xenografts; [3]", "result": "0.10 ± 0.03", "unit": "%ID/g"}, {"measurement": "tumor uptake", "setting": "LNCaP xenografts; 1 h after injection, unblocked, listed as 3", "result": "4.4 ± 0.95", "unit": "%ID/g"}, {"measurement": "tumor uptake", "setting": "LNCaP xenografts; 1 h after injection, unblocked, listed as [18F]3", "result": "4.36 ± 0.95", "unit": "%ID/g"}, {"measurement": "tumor uptake", "setting": "LNCaP xenografts; [3]", "result": "0.35 ± 0.21", "unit": "%ID/g"}, {"measurement": "Ki", "setting": "PSMA", "result": "25.9 ± 5.7", "unit": "nM"}]}, {"smiles": "O=C(O)CCC(NC(=O)NC(CCCCNC(=O)c1ccc([18F])nc1)C(=O)O)C(=O)O", "note": "(stereo not drawn) [^18F-DCFPyL, 2-(3-{1-carboxy-5-[(6-[^18F]fluoro-pyridine-3-carbonyl)-amino]-pentyl}-ureido)-pentanedioic acid, reference compound]", "values": [{"measurement": "logD at 2 min", "setting": "[1]", "result": "-3.12 ± 0.22"}, {"measurement": "adrenal uptake", "setting": "LNCaP xenografts; 1 h after injection, unblocked", "result": "3.02 ± 2.14", "unit": "%ID/g"}, {"measurement": "blood uptake", "setting": "LNCaP xenografts; 1 h after injection, unblocked", "result": "0.60 ± 0.13", "unit": "%ID/g"}, {"measurement": "bone uptake", "setting": "LNCaP xenografts; 1 h after injection, unblocked", "result": "0.33 ± 0.07", "unit": "%ID/g"}, {"measurement": "brain uptake", "setting": "LNCaP xenografts; 1 h after injection, unblocked", "result": "0.03 ± 0.01", "unit": "%ID/g"}, {"measurement": "fat uptake", "setting": "LNCaP xenografts; 1 h after injection, unblocked", "result": "1.05 ± 0.64", "unit": "%ID/g"}, {"measurement": "heart uptake", "setting": "LNCaP xenografts; 1 h after injection, unblocked", "result": "0.35 ± 0.12", "unit": "%ID/g"}, {"measurement": "intestine uptake", "setting": "LNCaP xenografts; 1 h after injection, unblocked", "result": "0.33 ± 0.07", "unit": "%ID/g"}, {"measurement": "kidney uptake", "setting": "LNCaP xenografts; 1 h after injection, unblocked", "result": "123.76 ± 37.67", "unit": "%ID/g"}, {"measurement": "liver uptake", "setting": "LNCaP xenografts; 1 h after injection, unblocked", "result": "1.82 ± 0.24", "unit": "%ID/g"}, {"measurement": "lung uptake", "setting": "LNCaP xenografts; 1 h after injection, unblocked", "result": "1.62 ± 0.68", "unit": "%ID/g"}, {"measurement": "muscle uptake", "setting": "LNCaP xenografts; 1 h after injection, unblocked", "result": "0.29 ± 0.12", "unit": "%ID/g"}, {"measurement": "pancreas uptake", "setting": "LNCaP xenografts; 1 h after injection, unblocked", "result": "0.58 ± 0.32", "unit": "%ID/g"}, {"measurement": "spleen uptake", "setting": "LNCaP xenografts; 1 h after injection, unblocked", "result": "3.98 ± 2.35", "unit": "%ID/g"}, {"measurement": "stomach uptake", "setting": "LNCaP xenografts; 1 h after injection, unblocked", "result": "0.12 ± 0.03", "unit": "%ID/g"}, {"measurement": "testes uptake", "setting": "LNCaP xenografts; 1 h after injection, unblocked", "result": "0.57 ± 0.21", "unit": "%ID/g"}, {"measurement": "tumor uptake", "setting": "LNCaP xenografts; 1 h after injection, unblocked", "result": "11.64 ± 3.52", "unit": "%ID/g"}]}]}
